Measurements from patent publication US12258327B2, “5-membered heteroaryl-containing aminopyridine compounds as EGFR inhibitors” (YUHAN CORPORATION, priority 2021, dated 2025).
Read-outs that look alike come from different tables or passages of the source.

Key:
[1] = target: EGFR L858R/C797S (Homo sapiens, UniProt P00533, C797S/L858R); assay: Biochemical EGFR kinase assay (Lance Ultra TR-FRET), double mutant L858R/C797S
Procedure, shortened: (§1)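 In this biochemical assay, phosphorylation after a one-hour room-temperature reaction was detected with europium-labelled anti-phosphopeptide antibody at 2 nM final concentration.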

[2] = target: EGFR del19/T790M/C797S (Homo sapiens, UniProt P00533, C797S/DEL746-750/T790M); assay: Biochemical EGFR kinase assay (Lance Ultra TR-FRET), triple mutant del19/T790M/C797S
Chain of EGFR del19/T790M/C797S (P00533 with tags, fused parts or gaps DEL746-750/T790M/C797S): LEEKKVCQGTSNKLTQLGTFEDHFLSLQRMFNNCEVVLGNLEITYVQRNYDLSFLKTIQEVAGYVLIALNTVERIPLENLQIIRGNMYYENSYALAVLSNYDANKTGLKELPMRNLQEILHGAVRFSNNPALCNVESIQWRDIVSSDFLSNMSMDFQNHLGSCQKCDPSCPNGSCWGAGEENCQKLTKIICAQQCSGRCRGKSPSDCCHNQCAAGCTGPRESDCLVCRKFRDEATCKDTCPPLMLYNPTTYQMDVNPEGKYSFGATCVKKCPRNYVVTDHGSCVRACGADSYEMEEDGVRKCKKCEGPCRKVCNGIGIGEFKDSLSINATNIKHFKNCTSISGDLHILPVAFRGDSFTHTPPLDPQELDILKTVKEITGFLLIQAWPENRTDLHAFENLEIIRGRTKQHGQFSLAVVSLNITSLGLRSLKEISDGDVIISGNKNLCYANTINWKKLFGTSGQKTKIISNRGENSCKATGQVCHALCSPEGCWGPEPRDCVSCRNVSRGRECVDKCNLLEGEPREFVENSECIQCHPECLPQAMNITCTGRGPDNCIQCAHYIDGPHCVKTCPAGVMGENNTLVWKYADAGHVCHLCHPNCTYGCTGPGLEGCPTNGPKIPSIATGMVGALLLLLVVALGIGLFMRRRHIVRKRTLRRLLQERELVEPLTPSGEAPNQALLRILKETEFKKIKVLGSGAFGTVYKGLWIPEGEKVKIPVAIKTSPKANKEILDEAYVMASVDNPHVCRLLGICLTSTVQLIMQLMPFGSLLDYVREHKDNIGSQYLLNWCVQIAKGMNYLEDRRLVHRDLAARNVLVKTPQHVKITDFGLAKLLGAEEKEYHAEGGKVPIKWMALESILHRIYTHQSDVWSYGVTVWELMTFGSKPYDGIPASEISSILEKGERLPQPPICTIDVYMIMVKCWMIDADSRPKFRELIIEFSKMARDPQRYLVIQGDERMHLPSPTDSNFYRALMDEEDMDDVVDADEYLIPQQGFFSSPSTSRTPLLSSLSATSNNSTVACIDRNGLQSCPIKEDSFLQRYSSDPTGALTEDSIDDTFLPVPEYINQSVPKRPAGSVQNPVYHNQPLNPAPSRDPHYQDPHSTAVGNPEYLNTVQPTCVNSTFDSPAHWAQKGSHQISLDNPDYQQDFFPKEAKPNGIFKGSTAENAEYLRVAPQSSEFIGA
Procedure, shortened: as §1

[3] = target: EGFR wildtype (WT) (Homo sapiens, UniProt P00533); assay: Biochemical EGFR kinase assay (Lance Ultra TR-FRET), wildtype
Procedure, shortened: as §1

[4] = target: EGFR del19/C797S (Homo sapiens, UniProt P00533, C797S/DEL746-750); assay: Biochemical EGFR kinase assay (Lance Ultra TR-FRET), double mutant del19/C797S
Chain of EGFR del19/C797S (P00533 with tags, fused parts or gaps DEL746-750/C797S): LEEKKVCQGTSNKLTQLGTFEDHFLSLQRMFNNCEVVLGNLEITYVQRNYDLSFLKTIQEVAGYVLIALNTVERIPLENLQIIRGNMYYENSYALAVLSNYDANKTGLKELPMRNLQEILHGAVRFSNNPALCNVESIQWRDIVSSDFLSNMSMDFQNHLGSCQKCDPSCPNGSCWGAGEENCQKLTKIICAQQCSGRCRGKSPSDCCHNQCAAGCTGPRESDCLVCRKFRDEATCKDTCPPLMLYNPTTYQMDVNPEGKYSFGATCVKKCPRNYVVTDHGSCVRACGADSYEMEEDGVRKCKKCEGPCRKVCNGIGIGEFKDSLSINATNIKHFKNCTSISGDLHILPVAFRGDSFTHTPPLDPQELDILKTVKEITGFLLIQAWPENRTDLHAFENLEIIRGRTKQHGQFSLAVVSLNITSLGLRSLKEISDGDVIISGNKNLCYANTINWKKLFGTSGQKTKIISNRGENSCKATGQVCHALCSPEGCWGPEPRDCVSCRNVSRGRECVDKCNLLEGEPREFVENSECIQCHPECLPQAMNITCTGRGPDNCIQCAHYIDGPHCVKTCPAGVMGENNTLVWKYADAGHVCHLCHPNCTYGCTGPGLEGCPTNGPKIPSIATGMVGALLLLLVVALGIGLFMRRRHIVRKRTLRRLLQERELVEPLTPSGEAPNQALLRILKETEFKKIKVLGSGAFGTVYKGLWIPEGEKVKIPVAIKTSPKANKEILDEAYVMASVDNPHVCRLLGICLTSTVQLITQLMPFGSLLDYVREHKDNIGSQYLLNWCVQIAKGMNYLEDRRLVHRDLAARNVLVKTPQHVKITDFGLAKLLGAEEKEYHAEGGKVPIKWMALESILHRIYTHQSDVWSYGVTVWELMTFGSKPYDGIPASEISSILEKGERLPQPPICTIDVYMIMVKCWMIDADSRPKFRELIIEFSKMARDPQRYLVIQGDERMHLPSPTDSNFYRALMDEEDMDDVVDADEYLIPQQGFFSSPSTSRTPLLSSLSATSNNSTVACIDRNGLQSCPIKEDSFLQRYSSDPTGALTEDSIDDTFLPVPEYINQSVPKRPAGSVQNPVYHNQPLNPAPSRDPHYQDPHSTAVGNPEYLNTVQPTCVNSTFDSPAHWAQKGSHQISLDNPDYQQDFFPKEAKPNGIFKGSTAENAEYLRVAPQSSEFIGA
Procedure, shortened: as §1

[5] = target: EGFR L858R/T790M/C797S (Homo sapiens, UniProt P00533, C797S/L858R/T790M); assay: Biochemical EGFR kinase assay (Lance Ultra TR-FRET), triple mutant L858R/T790M/C797S
Chain of EGFR L858R/T790M/C797S (P00533 25-1210 T790M/C797S/L858R): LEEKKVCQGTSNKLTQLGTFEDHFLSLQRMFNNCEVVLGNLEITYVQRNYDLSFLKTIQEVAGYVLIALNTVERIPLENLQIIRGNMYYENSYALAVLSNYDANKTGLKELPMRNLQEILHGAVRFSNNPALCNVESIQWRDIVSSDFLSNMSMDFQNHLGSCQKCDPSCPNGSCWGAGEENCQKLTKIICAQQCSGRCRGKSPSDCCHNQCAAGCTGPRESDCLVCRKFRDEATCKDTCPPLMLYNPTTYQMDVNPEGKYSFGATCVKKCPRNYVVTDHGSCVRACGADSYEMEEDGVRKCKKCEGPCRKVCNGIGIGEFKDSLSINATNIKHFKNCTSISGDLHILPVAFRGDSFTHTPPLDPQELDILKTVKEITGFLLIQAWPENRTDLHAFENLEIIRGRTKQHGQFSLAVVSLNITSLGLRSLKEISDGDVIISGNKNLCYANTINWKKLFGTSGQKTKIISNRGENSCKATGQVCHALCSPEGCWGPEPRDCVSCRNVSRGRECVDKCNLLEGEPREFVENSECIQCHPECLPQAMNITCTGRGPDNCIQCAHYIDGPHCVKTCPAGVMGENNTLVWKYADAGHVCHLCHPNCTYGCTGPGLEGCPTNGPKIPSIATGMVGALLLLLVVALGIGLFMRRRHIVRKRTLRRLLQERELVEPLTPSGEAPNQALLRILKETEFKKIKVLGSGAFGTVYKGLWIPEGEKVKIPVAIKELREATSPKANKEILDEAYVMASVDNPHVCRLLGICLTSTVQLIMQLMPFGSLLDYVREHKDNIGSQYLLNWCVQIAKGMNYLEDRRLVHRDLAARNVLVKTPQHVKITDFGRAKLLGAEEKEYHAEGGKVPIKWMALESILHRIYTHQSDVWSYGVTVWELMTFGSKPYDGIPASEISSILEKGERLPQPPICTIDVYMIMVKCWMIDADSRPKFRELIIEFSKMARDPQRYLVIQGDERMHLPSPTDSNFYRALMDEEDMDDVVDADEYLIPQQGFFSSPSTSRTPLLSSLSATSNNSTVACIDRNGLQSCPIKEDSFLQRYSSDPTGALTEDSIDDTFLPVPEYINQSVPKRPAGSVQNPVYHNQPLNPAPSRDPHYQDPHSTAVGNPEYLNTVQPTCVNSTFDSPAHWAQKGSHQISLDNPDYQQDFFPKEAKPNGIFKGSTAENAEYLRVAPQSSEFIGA
Procedure, shortened: as §1

[6] = IC50 L858R/C797S (nM) 100 μM ATP, 100 μM ATP
[7] = IC50 del19/T790M/C797S (nM) 100 μM ATP, 100 μM ATP
[8] = IC50 WT (nM) 100 μM ATP, 100 μM ATP
[9] = IC50 del19/C797S (nM) 100 μM ATP, 100 μM ATP
[10] = Km ATP, read-out: IC50 del19/C797S (nM) Km ATP
[11] = IC50 L858R/T790M/C797S (nM) 100 μM ATP, 100 μM ATP
[12] = Km ATP, read-out: IC50 L858R/C797S (nM) Km ATP
[13] = Km ATP, read-out: IC50 del19/T790M/C797S (nM) Km ATP
[14] = Km ATP, read-out: IC50 WT (nM) Km ATP
[15] = Km ATP, read-out: IC50 L858R/T790M/C797S (nM) Km ATP
[16] = Km ATP, read-out: IC50 L858R/C797S, Km ATP
[17] = Km ATP, read-out: IC50 del19/T790M/C797S, Km ATP
[18] = Km ATP, read-out: IC50 WT, Km ATP
[19] = Km ATP, read-out: IC50 del19/C797S, Km ATP
[20] = Km ATP, read-out: IC50 L858R/T790M/C797S, Km ATP

Chain of EGFR L858R/C797S (P00533 25-1210 C797S/L858R): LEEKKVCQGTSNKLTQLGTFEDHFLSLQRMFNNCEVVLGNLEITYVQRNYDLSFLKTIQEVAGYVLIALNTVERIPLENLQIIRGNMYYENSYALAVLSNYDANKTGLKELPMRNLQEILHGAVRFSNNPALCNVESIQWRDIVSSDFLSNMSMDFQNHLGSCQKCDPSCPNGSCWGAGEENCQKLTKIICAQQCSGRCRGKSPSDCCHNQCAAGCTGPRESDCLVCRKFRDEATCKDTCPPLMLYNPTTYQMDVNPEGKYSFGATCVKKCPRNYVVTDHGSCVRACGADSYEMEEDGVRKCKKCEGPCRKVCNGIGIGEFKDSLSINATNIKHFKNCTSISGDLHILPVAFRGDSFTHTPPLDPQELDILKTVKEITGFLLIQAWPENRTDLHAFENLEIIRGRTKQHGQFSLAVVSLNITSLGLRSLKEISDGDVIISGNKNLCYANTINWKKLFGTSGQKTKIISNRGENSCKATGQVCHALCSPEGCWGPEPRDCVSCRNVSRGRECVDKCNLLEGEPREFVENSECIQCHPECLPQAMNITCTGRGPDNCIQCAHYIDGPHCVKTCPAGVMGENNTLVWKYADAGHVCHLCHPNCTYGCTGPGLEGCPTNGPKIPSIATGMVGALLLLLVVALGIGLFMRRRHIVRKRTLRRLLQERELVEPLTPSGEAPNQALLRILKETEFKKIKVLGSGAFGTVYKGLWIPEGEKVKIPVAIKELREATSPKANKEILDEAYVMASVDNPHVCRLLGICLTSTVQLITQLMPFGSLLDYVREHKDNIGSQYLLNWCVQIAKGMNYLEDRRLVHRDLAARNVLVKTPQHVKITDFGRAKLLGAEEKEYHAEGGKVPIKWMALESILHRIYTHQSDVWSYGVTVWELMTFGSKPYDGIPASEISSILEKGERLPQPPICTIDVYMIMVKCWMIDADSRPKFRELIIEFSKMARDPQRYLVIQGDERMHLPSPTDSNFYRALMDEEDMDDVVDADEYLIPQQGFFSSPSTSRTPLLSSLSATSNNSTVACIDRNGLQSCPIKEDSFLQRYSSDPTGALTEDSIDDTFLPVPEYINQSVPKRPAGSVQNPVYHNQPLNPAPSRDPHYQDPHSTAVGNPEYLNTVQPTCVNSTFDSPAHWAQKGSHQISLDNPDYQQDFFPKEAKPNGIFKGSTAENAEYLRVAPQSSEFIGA

SMILES | IC50 [1, 6] [nM] | IC50 [2, 7] [nM] | IC50 [3, 8] [nM] | IC50 [4, 9] [nM] | IC50 [4, 10] [nM] | IC50 [5, 11] [nM] | IC50 [1, 12] [nM] | IC50 [2, 13] [nM] | IC50 [3, 14] [nM] | IC50 [5, 15] [nM] | IC50 [1, 16] [nM] | IC50 [2, 17] [nM] | IC50 [3, 18] [nM] | IC50 [4, 19] [nM] | IC50 [5, 20] [nM]
COCn1cc(-c2nccc(Nc3cc(N[C@H]4CC[C@@](C)(O)CC4)c(-c4ccn(C(F)F)n4)cn3)n2)cn1 [Example 310, (1s,4s)-4-((5-(1-(Difluoromethyl)-1H-pyrazol-3-yl)-2-((2-(1-(methoxymethyl)-1H-pyrazol-4-yl)pyrimidin-4-yl)amino)pyridin-4-yl)amino)-1-methylcyclohexan-1-ol] | 237 | 4 | > 10000 | 36.8 | 0.1 | 19 | – | – | – | – | – | – | – | – | –
Cn1ccc(-c2cnc(Nc3ccnc(-c4cnn(S(=O)(=O)C5CC5)c4)n3)cc2N[C@H]2CC[C@]3(CCC(=O)N3)CC2)n1 [Example 44, (5s,8s)-8-((2-((2-(1-(Cyclopropylsulfonyl)-1H-pyrazol-4-yl)pyrimidin-4-yl)amino)-5-(1-methyl-1H-pyrazol-3-yl)pyridin-4-yl)amino)-1-azaspiro[4.5]decan-2-one] | 0.8 | 0.2 | > 10000 | 0.2 | 0.2 | 0.2 | 0.2 | 0.2 | 1 | 0.1 | – | – | – | – | –
CC1(O)CCC(Nc2cc(Nc3ccnc(-c4cnn(C5CCCO5)c4)n3)ncc2-c2ccn(C(F)F)n2)CC1 (stereo not shown) [Example 318, (1s,4s)-4-((5-(1-(Difluoromethyl)-1H-pyrazol-3-yl)-2-((2-(1-(tetrahydrofuran-2-yl)-1H-pyrazol-4-yl)pyrimidin-4-yl)amino)pyridin-4-yl)amino)-1-methylcyclohexan-1-ol] | 277 | 3 | > 10000 | 290 | 57.1 | 4.8 | 42.7 | 3.6 | 255 | 0.5 | – | – | – | – | –
O=S(=O)(C1CC1)n1cc(-c2nccc(Nc3cc(NC4CC(O)C4)c(-c4ccn(C(F)F)n4)cn3)n2)cn1 (stereo not shown) [Example 40, 3-((2-((2-(1-(Cyclopropylsulfonyl)-1H-pyrazol-4-yl)pyrimidin-4-yl)amino)-5-(1-(difluoromethyl)-1H-pyrazol-3-yl)pyridin-4-yl)amino)cyclobutan-1-ol] | 174 | 0.5 | > 10000 | 7.6 | 2.3 | 2 | 4.5 | 0.5 | 36.3 | 0.3 | – | – | – | – | –
Cc1nn(-c2cnc(Nc3ccnc(-c4cnn(S(=O)(=O)C5CC5)c4)n3)cc2N[C@H]2CC[C@@](C)(O)CC2)cc1C(F)(F)F [Example 182, (1s,4s)-4-((2-((2-(1-(Cyclopropylsulfonyl)-1H-pyrazol-4-yl)pyrimidin-4-yl)amino)-5-(3-methyl-4-(trifluoromethyl)-1H-pyrazol-1-yl)pyridin-4-yl)amino)-1-methylcyclohexan-1-ol] | – | – | – | – | 26.8 | – | 116 | 0.8 | 781 | 0.8 | – | – | – | – | –
OC1CCN(Nc2cc(Nc3ccnc(-c4cnn(CC(F)F)c4)n3)ncc2-c2ccn(C(F)F)n2)CC1 [Example 162, 1-((2-((2-(1-(2,2-Difluoroethyl)-1H-pyrazol-4-yl)pyrimidin-4-yl)amino)-5-(1-(difluoromethyl)-1H-pyrazol-3-yl)pyridin-4-yl)amino)piperidin-4-ol] | – | – | – | – | 33.4 | – | 275 | 0.9 | 271 | 0.2 | – | – | – | – | –
Cn1ccc(-c2cnc(Nc3ccnc(-c4cnn(S(=O)(=O)C5CC5)c4)n3)cc2NC2CCC(F)(CO)CC2)n1 (stereo not shown) [Example 222, (4-((2-((2-(1-(Cyclopropylsulfonyl)-1H-pyrazol-4-yl)pyrimidin-4-yl)amino)-5-(1-methyl-1H-pyrazol-3-yl)pyridin-4-yl)amino)-1-fluorocyclohexyl)methanol] | 18.8 | 0.2 | > 10000 | 0.9 | 1.1 | 0.2 | 3.3 | 0.3 | 14.9 | 0.1 | – | – | – | – | –
C[C@]1(O)CC[C@@H](Nc2nc(Nc3ccnc(-c4cnn(S(=O)(=O)C5CC5)c4)c3)ncc2-c2ccn(CC(F)F)n2)CC1 [Example 357, (1s,4s)-4-((2-((2-(1-(Cyclopropylsulfonyl)-1H-pyrazol-4-yl)pyridin-4-yl)amino)-5-(1-(2,2-difluoroethyl)-1H-pyrazol-3-yl)pyrimidin-4-yl)amino)-1-methylcyclohexan-1-ol] | – | – | – | – | – | – | – | – | – | – | 8.4 | 0.2 | 46.2 | 5.2 | 0.4
O=S(=O)(C1CC1)n1cc(-c2nccc(Nc3cc(N[C@H]4CC[C@@H](CO)CC4)c(-c4cc5n(n4)CCCC5)cn3)n2)cn1 [Example 60, ((1s,4s)-4-((2-((2-(1-(Cyclopropylsulfonyl)-1H-pyrazol-4-yl)pyrimidin-4-yl)amino)-5-(4,5,6,7-tetrahydropyrazolo[1,5-a]pyridin-2-yl)pyridin-4-yl)amino)cyclohexyl)methanol] | 2.4 | 4.3 | 326 | 2.5 | 1.1 | – | 1.1 | 1.1 | 2.2 | 0.5 | – | – | – | – | –
O=S(=O)(C1CC1)n1cc(-c2nccc(Nc3cc(N[C@H]4CC[C@@H](NCCF)CC4)c(-c4ccn(C(F)F)n4)cn3)n2)cn1 [Example 9, N^2-(2-(1-(Cyclopropylsulfonyl)-1H-pyrazol-4-yl)pyrimidin-4-yl)-5-(1-(difluoromethyl)-1H-pyrazol-3-yl)-N^4-((1s,4s)-4-((2-fluoroethyl)amino)cyclohexyl)pyridine-2,4-diamine] | 7.6 | 0.5 | 7100 | 4.3 | – | 0.5 | – | – | – | – | – | – | – | – | –
C[C@]1(O)CC[C@@H](Nc2cc(Nc3ccnc(-c4cnn(S(=O)(=O)C5CC5)c4)n3)ncc2-c2cc3n(n2)CCCC3)CC1 [Example 59, (1s,4s)-4-((2-((2-(1-(Cyclopropylsulfonyl)-1H-pyrazol-4-yl)pyrimidin-4-yl)amino)-5-(4,5,6,7-tetrahydropyrazolo[1,5-a]pyridin-2-yl)pyridin-4-yl)amino)-1-methylcyclohexan-1-ol] | – | 0.8 | 368 | 1.9 | 1 | 0.6 | 0.6 | 0.7 | – | 0.3 | – | – | – | – | –
CC1(C)CC(Nc2cc(Nc3ccnc(-c4cnn(S(=O)(=O)C5CC5)c4)n3)ncc2-c2ccn(C(F)F)n2)CCC1O (stereo not shown) [Example 106, 4-((2-((2-(1-(Cyclopropylsulfonyl)-1H-pyrazol-4-yl)pyrimidin-4-yl)amino)-5-(1-(difluoromethyl)-1H-pyrazol-3-yl)pyridin-4-yl)amino)-2,2-dimethylcyclohexan-1-ol] | 453 | 3.9 | 9960 | 22.7 | 19.6 | 2.6 | 19 | 3.9 | 46.9 | – | – | – | – | – | –
Cc1nn(CC(F)(F)F)cc1-c1nccc(Nc2cc(N[C@H]3CC[C@@H](CCO)CC3)c(-c3ccn(CC(F)F)n3)cn2)n1 [Example 337, 2-((1s,4s)-4-((5-(1-(2,2-Difluoroethyl)-1H-pyrazol-3-yl)-2-((2-(3-methyl-1-(2,2,2-trifluoroethyl)-1H-pyrazol-4-yl)pyrimidin-4-yl)amino)pyridin-4-yl)amino)cyclohexyl)ethan-1-ol] | – | – | – | – | – | – | – | – | – | – | 3.7 | 0.8 | 9 | 6.1 | 0.5
